{"source": "patent US6503881B2", "about": "(priority 1996, dated 2003)", "key": {"[1]": {"tested_on": "inherently resistant microorganisms"}, "[2]": {"tested_on": "microorganisms with acquired resistance"}, "[3]": {"settings": "E. coli ECO3, pair Mupirocin / MBI 11D18CN"}, "[4]": {"settings": "S. aureus 19 MRSA, pair Piperacillin / MBI 11D18CN"}}, "note": "Read-outs that look alike come from different tables or passages of the source.", "data": [{"substance": "W R I W K P K W R L P K W [MBI 11D18CN]", "values": [{"measurement": "FIC", "setting": "[1]", "result": 0.56}, {"measurement": "MIC Alone", "setting": "[1]", "result": 32, "unit": "µg/mL"}, {"measurement": "MIC in combination", "setting": "[1]", "result": 16, "unit": "µg/mL"}, {"measurement": "FIC", "setting": "[1]; [3]", "result": 0.26}, {"measurement": "MIC Alone", "setting": "[1]; [3]", "result": 4, "unit": "µg/mL"}, {"measurement": "MIC in combination", "setting": "[1]; [3]", "result": 1, "unit": "µg/mL"}, {"measurement": "FIC", "setting": "[1]; [4]", "result": 0.52}, {"measurement": "MIC Alone", "setting": "[1]; [4]", "result": 4, "unit": "µg/mL"}, {"measurement": "MIC in combination", "setting": "[1]; [4]", "result": 2, "unit": "µg/mL"}, {"measurement": "Peptide MIC + Tobramycin", "setting": "[2]; A. baumannii ABI001", "result": 4, "unit": "µg/mL"}, {"measurement": "Tobramycin MIC + Peptide", "setting": "[2]; A. baumannii ABI001", "result": 4, "unit": "µg/mL"}, {"measurement": "Peptide MIC Alone", "setting": "[2]; A. baumannii ABI001 (7. Tobramycin)", "result": 64, "unit": "µg/mL"}, {"measurement": "Peptide MIC + Tobramycin", "setting": "[2]; A. baumannii ABI002", "result": 0.5, "unit": "µg/mL"}, {"measurement": "Tobramycin MIC + Peptide", "setting": "[2]; A. baumannii ABI002", "result": 4, "unit": "µg/mL"}, {"measurement": "Peptide MIC Alone", "setting": "[2]; A. baumannii ABI002 (7. Tobramycin)", "result": 16, "unit": "µg/mL"}, {"measurement": "Peptide MIC + Piperacillin", "setting": "[2]; A. calcoaceticus 3", "result": 8, "unit": "µg/mL"}, {"measurement": "Piperacillin MIC + Peptide", "setting": "[2]; A. calcoaceticus 3", "result": 8, "unit": "µg/mL"}, {"measurement": "Peptide MIC Alone", "setting": "[2]; A. calcoaceticus 3 (6. Piperacillin)", "result": 32, "unit": "µg/mL"}, {"measurement": "Peptide MIC + Piperacillin", "setting": "[2]; E. cloacae 9", "result": 16, "unit": "µg/mL"}, {"measurement": "Piperacillin MIC + Peptide", "setting": "[2]; E. cloacae 9", "result": 16, "unit": "µg/mL"}, {"measurement": "Peptide MIC Alone", "setting": "[2]; E. cloacae 9 (6. Piperacillin)", "result": 64, "unit": "µg/mL"}, {"measurement": "Peptide MIC + Piperacillin", "setting": "[2]; E. cloacae 10", "result": 16, "unit": "µg/mL"}, {"measurement": "Piperacillin MIC + Peptide", "setting": "[2]; E. cloacae 10", "result": 16, "unit": "µg/mL"}, {"measurement": "Peptide MIC Alone", "setting": "[2]; E. cloacae 10 (6. Piperacillin)", "result": 32, "unit": "µg/mL"}, {"measurement": "Peptide MIC + Vancomycin", "setting": "[2]; E. faecalis EFS003", "result": 32, "unit": "µg/mL"}, {"measurement": "Vancomycin MIC + Peptide", "setting": "[2]; E. faecalis EFS003", "result": 2, "unit": "µg/mL"}, {"measurement": "Peptide MIC Alone", "setting": "[2]; E. faecalis EFS003 (8. Vancomycin)", "result": 64, "unit": "µg/mL"}, {"measurement": "Peptide MIC + Vancomycin", "setting": "[2]; E. faecalis EFS007", "result": 8, "unit": "µg/mL"}, {"measurement": "Vancomycin MIC + Peptide", "setting": "[2]; E. faecalis EFS007", "result": 1, "unit": "µg/mL"}, {"measurement": "Peptide MIC Alone", "setting": "[2]; E. faecalis EFS007 (8. Vancomycin)", "result": 16, "unit": "µg/mL"}, {"measurement": "Peptide MIC + Vancomycin", "setting": "[2]; E. faecalis EFS009", "result": 4, "unit": "µg/mL"}, {"measurement": "Vancomycin MIC + Peptide", "setting": "[2]; E. faecalis EFS009", "result": 2, "unit": "µg/mL"}, {"measurement": "Peptide MIC Alone", "setting": "[2]; E. faecalis EFS009 (8. Vancomycin)", "result": 8, "unit": "µg/mL"}, {"measurement": "Peptide MIC + Vancomycin", "setting": "[2]; E. faecium EFM004", "result": 4, "unit": "µg/mL"}, {"measurement": "Vancomycin MIC + Peptide", "setting": "[2]; E. faecium EFM004", "result": 0.5, "unit": "µg/mL"}, {"measurement": "Peptide MIC Alone", "setting": "[2]; E. faecium EFM004 (8. Vancomycin)", "result": 8, "unit": "µg/mL"}, {"measurement": "Peptide MIC + Vancomycin", "setting": "[2]; E. faecium EFM007", "result": 4, "unit": "µg/mL"}, {"measurement": "Vancomycin MIC + Peptide", "setting": "[2]; E. faecium EFM007", "result": 0.5, "unit": "µg/mL"}, {"measurement": "Peptide MIC Alone", "setting": "[2]; E. faecium EFM007 (8. Vancomycin)", "result": 8, "unit": "µg/mL"}, {"measurement": "Peptide MIC + Vancomycin", "setting": "[2]; E. faecium EFM009", "result": 4, "unit": "µg/mL"}, {"measurement": "Vancomycin MIC + Peptide", "setting": "[2]; E. faecium EFM009", "result": 1, "unit": "µg/mL"}, {"measurement": "Peptide MIC Alone", "setting": "[2]; E. faecium EFM009 (8. Vancomycin)", "result": 8, "unit": "µg/mL"}, {"measurement": "Peptide MIC + Vancomycin", "setting": "[2]; E. faecium EFM010", "result": 4, "unit": "µg/mL"}, {"measurement": "Vancomycin MIC + Peptide", "setting": "[2]; E. faecium EFM010", "result": 1, "unit": "µg/mL"}, {"measurement": "Peptide MIC Alone", "setting": "[2]; E. faecium EFM010 (8. Vancomycin)", "result": 8, "unit": "µg/mL"}, {"measurement": "Peptide MIC + Piperacillin", "setting": "[2]; P. aeruginosa 23", "result": 4, "unit": "µg/mL"}, {"measurement": "Piperacillin MIC + Peptide", "setting": "[2]; P. aeruginosa 23", "result": 64, "unit": "µg/mL"}, {"measurement": "Peptide MIC Alone", "setting": "[2]; P. aeruginosa 23 (6. Piperacillin)", "result": 64, "unit": "µg/mL"}, {"measurement": "Peptide MIC + Tobramycin", "setting": "[2]; P. aeruginosa PA032", "result": 32, "unit": "µg/mL"}, {"measurement": "Tobramycin MIC + Peptide", "setting": "[2]; P. aeruginosa PA032", "result": 4, "unit": "µg/mL"}, {"measurement": "Peptide MIC Alone", "setting": "[2]; P. aeruginosa PA032 (7. Tobramycin)", "result": 64, "unit": "µg/mL"}, {"measurement": "Ciprofloxacin MIC + Peptide", "setting": "[2]; P. aeruginosa PA77", "result": 0.5, "unit": "µg/mL"}, {"measurement": "Peptide MIC + Ciprofloxacin", "setting": "[2]; P. aeruginosa PA77", "result": 32, "unit": "µg/mL"}, {"measurement": "Peptide MIC Alone", "setting": "[2]; P. aeruginosa PA77 (3. Ciprofloxacin)", "result": 128, "unit": "µg/mL"}, {"measurement": "Peptide MIC", "setting": "[2]; S. aureus MRSA 9, pair Mupirocin / MBI 11D18CN", "result": 2, "unit": "µg/mL"}, {"measurement": "Peptide MIC + Tobramycin", "setting": "[2]; S. epidermidis SE080", "result": 1, "unit": "µg/mL"}, {"measurement": "Tobramycin MIC + Peptide", "setting": "[2]; S. epidermidis SE080", "result": 4, "unit": "µg/mL"}, {"measurement": "Peptide MIC Alone", "setting": "[2]; S. epidermidis SE080 (7. Tobramycin)", "result": 2, "unit": "µg/mL"}, {"measurement": "Peptide MIC + Piperacillin", "setting": "[2]; S. maltophilia 2", "result": 8, "unit": "µg/mL"}, {"measurement": "Piperacillin MIC + Peptide", "setting": "[2]; S. maltophilia 2", "result": 16, "unit": "µg/mL"}, {"measurement": "Peptide MIC Alone", "setting": "[2]; S. maltophilia 2 (6. Piperacillin)", "result": 32, "unit": "µg/mL"}, {"measurement": "Peptide MIC + Piperacillin", "setting": "[2]; S. maltophilia 14", "result": 8, "unit": "µg/mL"}, {"measurement": "Piperacillin MIC + Peptide", "setting": "[2]; S. maltophilia 14", "result": 16, "unit": "µg/mL"}, {"measurement": "Peptide MIC Alone", "setting": "[2]; S. maltophilia 14 (6. Piperacillin)", "result": 16, "unit": "µg/mL"}, {"measurement": "Peptide MIC + Tobramycin", "setting": "[2]; S. maltophilia SMA027", "result": 16, "unit": "µg/mL"}, {"measurement": "Tobramycin MIC + Peptide", "setting": "[2]; S. maltophilia SMA027", "result": 4, "unit": "µg/mL"}, {"measurement": "Peptide MIC Alone", "setting": "[2]; S. maltophilia SMA027 (7. Tobramycin)", "result": ">128", "unit": "µg/mL"}, {"measurement": "Peptide MIC + Tobramycin", "setting": "[2]; S. maltophilia SMA029", "result": 8, "unit": "µg/mL"}, {"measurement": "Tobramycin MIC + Peptide", "setting": "[2]; S. maltophilia SMA029", "result": 2, "unit": "µg/mL"}, {"measurement": "Peptide MIC Alone", "setting": "[2]; S. maltophilia SMA029 (7. Tobramycin)", "result": 32, "unit": "µg/mL"}, {"measurement": "Peptide MIC + Piperacillin", "setting": "[2]; S. marcescens 1", "result": 4, "unit": "µg/mL"}, {"measurement": "Piperacillin MIC + Peptide", "setting": "[2]; S. marcescens 1", "result": 8, "unit": "µg/mL"}, {"measurement": "Peptide MIC Alone", "setting": "[2]; S. marcescens 1 (6. Piperacillin)", "result": ">128", "unit": "µg/mL"}, {"measurement": "FIC", "setting": "[2]; peptide + Ciprofloxacin, P. aeruginosa PA77", "result": 0.50}, {"measurement": "FIC", "setting": "[2]; peptide + Piperacillin, A. calcoaceticus 3", "result": 0.38}, {"measurement": "FIC", "setting": "[2]; peptide + Piperacillin, E. cloacae 9", "result": 0.31}, {"measurement": "FIC", "setting": "[2]; peptide + Piperacillin, E. cloacae 10", "result": 0.56}, {"measurement": "FIC", "setting": "[2]; peptide + Piperacillin, P. aeruginosa 23", "result": 0.56}, {"measurement": "FIC", "setting": "[2]; peptide + Piperacillin, S. maltophilia 2", "result": 0.50}, {"measurement": "FIC", "setting": "[2]; peptide + Piperacillin, S. maltophilia 14", "result": 0.63}, {"measurement": "FIC", "setting": "[2]; peptide + Piperacillin, S. marcescens 1", "result": 0.14}, {"measurement": "FIC", "setting": "[2]; peptide + Tobramycin, A. baumannii ABI001", "result": 0.31}, {"measurement": "FIC", "setting": "[2]; peptide + Tobramycin, A. baumannii ABI002", "result": 9.53}, {"measurement": "FIC", "setting": "[2]; peptide + Tobramycin, P. aeruginosa PA032", "result": 11.00}, {"measurement": "FIC", "setting": "[2]; peptide + Tobramycin, S. epidermidis SE080", "result": 0.75}, {"measurement": "FIC", "setting": "[2]; peptide + Tobramycin, S. maltophilia SMA027", "result": 9.19}, {"measurement": "FIC", "setting": "[2]; peptide + Tobramycin, S. maltophilia SMA029", "result": 0.27}, {"measurement": "FIC", "setting": "[2]; peptide + Vancomycin, E. faecalis EFS003", "result": 0.75}, {"measurement": "FIC", "setting": "[2]; peptide + Vancomycin, E. faecalis EFS007", "result": 0.63}, {"measurement": "FIC", "setting": "[2]; peptide + Vancomycin, E. faecalis EFS009", "result": 0.75}, {"measurement": "FIC", "setting": "[2]; peptide + Vancomycin, E. faecium EFM004", "result": 0.50}, {"measurement": "FIC", "setting": "[2]; peptide + Vancomycin, E. faecium EFM007", "result": 0.50}, {"measurement": "FIC", "setting": "[2]; peptide + Vancomycin, E. faecium EFM009", "result": 0.52}, {"measurement": "FIC", "setting": "[2]; peptide + Vancomycin, E. faecium EFM010", "result": 0.59}]}]}
